# pIC50: −log10 of the molar value.
# What was measured:
# Assay type in all cases: biochemical
# [1] = molecular target: NA (neuraminidase) of A/Yamagata/104/2024 (Influenza A virus, UniProt C3W5S3)
# [2] = molecular target: NA (neuraminidase) of A/Yamagata/122/2023 (Influenza A virus, UniProt C3W5S3)
# [3] = molecular target: NA (neuraminidase) of A/Yamagata/177/2023 (Influenza A virus, UniProt C3W5S3)
# [4] = molecular target: NA (neuraminidase) of A/Yamagata/312/2023 (Influenza A virus, UniProt C3W5S3)
# [5] = molecular target: NA (neuraminidase) of A/Yamagata/135/2023 (Influenza A virus, UniProt C3W5S3)
# [6] = molecular target: NA (neuraminidase) of A/Yamagata/336/2023 (Influenza A virus, UniProt C3W5S3)
# [7] = molecular target: NA (neuraminidase) of A/Yamagata/127/2023 (Influenza A virus, UniProt C3W5S3)
# [8] = molecular target: NA (neuraminidase) of A/Yamagata/292/2023 (Influenza A virus, UniProt C3W5S3)
smiles,measurement,setting,value
"CCC(CC)[C@H](NC(C)=O)[C@@H]1[C@H](O)[C@@H](C(=O)O)C[C@H]1N=C(N)N [Peramivir, peramivir]",pIC50,[1],10.05
same,pIC50,[2],10.10
same,pIC50,[3],10.22
same,pIC50,[4],9.96
same,pIC50,[5],10.10
same,pIC50,[6],10.05
same,pIC50,[7],10.10
same,pIC50,[8],10.05
